US10954325B2, “Raft agents and their use in the development of polyvinylpyrrolidone grafted nanoparticles” (UNIVERSITY OF SOUTH CAROLINA, priority 2014, dated 2021)

How the values were obtained:
[1] = test system: MRSA-252, HA-MRSA, CA-MRSA and MSSA; experiment: Disk diffusion assay, result stated over the tested strains together; format: cell-based, Staphylococcus aureus; settings: when physically bound to the PVP grafted silica nanoparticles; against MRSA
Description: (§1) The PVP grafted nanoparticles were employed to non-covalently attach the antibiotic penicillin-G (PenG) and tested for activity against bacteria. Methicillin-resistant Staphylococcus aureus (MRSA)-252, HA-MRSA, CA-MRSA and methicillin-sensitive Staphylococcus aureus (MSSA) were selected as the target bacteria. A control group of free PenG with the same dose was used for the disk diffusion assay of PenG-nanoparticle complex. […] Without wishing to be bound by any particular theory, it is believed that the enhanced inhibition activity was due to the locally high concentrations of antibiotics physically attached to PVP grafted nanoparticles, which overwhelms the bacterial resistance. The small size PVP grafted nanoparticles with controllable surface attached polymer chain lengths offers a significant vehicle to restore antibiotics activities.
(§2) Bacteria Strains: MRSA 252 (ATCCBAA-1720); Staphylococcus aureus ATCC 29213 (community acquired-MRSA); Staphylococcus aureus ATCC BAA 1717 (hospital associated-MRSA); MSSA ATCC BAA 1718. These bacterial strains were grown at 37° C. in tryptic soy broth for 24 hours.
(§3) Preparation of Nanoparticle-PenG Complex: To prepare the nanoparticle-PenG complex, 15 μL of PVP grafted silica nanoparticles solution (26.65 mg/ml) and 1.85 mL DI water were mixed. 200 μL Penicillin G sodium salt aqueous solution (1 mg/mL) was added and incubated at 24° C. […]

MRSA 252 (ATCCBAA-1720) = experiment: Disk diffusion assay, MRSA 252; format: cell-based, Staphylococcus aureus; settings: at low doses
Description: as §1, §2, §3

CC1(C)S[C@@H]2[C@H](NC(=O)Cc3ccccc3)C(=O)N2[C@H]1C(=O)[O-].[Na+] [free penicillin-G, penicillin-G]
activity of antibiotic over MRSA [1]: significantly increased
inhibition activity (disk diffusion) (MRSA 252 (ATCCBAA-1720)): completely ineffective
